Source: ChEMBL document CHEMBL1201862, “PubChem BioAssay data set” (2004)
Values belong to the molecule of their own block, whether it stands above or below them. Active and inactive are the calls of the source.

Legend:
[1] = target: T1, Heat shock factor protein 1 (Mus musculus, UniProt P38532); assay: HSF1 potentiators in luciferase reporter cells, confirmation, cell-based, NIH3T3, luminescence, dose retest (AID 435004); type: functional;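 note: stress induced by proteasome inhibitor MG132 added 30 min after compound; luciferase reporter driven by HSF1 response element in NIH3T3 cells; actives raise luminescence as potentiators of the MG132 stress response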
T1 sequence (P38532 whole entry): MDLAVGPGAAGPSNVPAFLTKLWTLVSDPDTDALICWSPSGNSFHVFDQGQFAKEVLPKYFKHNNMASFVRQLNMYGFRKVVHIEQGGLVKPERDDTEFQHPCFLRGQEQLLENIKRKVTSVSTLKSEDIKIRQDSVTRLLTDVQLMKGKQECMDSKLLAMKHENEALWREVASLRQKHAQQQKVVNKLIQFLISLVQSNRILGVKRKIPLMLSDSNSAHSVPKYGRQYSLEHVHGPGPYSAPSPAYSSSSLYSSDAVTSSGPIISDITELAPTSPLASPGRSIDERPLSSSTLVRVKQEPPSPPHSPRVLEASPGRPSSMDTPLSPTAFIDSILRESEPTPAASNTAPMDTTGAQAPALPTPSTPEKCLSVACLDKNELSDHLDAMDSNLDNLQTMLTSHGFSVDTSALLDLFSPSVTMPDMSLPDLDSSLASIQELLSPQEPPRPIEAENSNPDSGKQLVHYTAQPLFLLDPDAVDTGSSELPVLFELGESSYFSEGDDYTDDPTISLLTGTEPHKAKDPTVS

[2] = cells; type: functional, cell-based
[3] = target: T2, Trace amine-associated receptor 1 (Homo sapiens, UniProt Q96RJ0); assay: Fluorescence-based cell-based high throughput dose response assay to identify agonists of the human trace amine associated receptor 1 (TAAR1).; type: functional
T2 sequence (Q96RJ0 whole entry): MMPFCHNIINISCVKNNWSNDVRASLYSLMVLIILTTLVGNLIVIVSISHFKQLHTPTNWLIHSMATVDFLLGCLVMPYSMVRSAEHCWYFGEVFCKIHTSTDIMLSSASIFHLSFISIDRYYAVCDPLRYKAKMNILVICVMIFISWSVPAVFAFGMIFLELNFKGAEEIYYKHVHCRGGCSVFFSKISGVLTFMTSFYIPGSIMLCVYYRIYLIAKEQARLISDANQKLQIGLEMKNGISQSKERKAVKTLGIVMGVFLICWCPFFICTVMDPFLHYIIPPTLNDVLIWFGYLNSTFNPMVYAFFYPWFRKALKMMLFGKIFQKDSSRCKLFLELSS

[4] = target: T2, Trace amine-associated receptor 1; assay: Counterscreen for agonists of the human trace amine associated receptor 1 (hTAAR1): Fluorescence-based cell-based high throughput dose response assay to identify hTAAR1 agonist that also desensitize TAAR1 receptor response.; type: functional
[5] = cells; type: functional, cell-based; remark: listed apart in the source
[6] = CEM21 lymphoblast cell cytotoxicity, dose response, cytotoxicity control for viral fusion inhibitor project, CellTiter-Glo luminescence, cherry-picked (AID 652042); type: functional, cell-based;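 note: potency for signal decrease meaning cytotoxicity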
[7] = off-target signal loss in HeLa-CEM21 co-culture – HeLa F-luc CTL cells, cherry-picked, counter-screen for HIV-1 Env fusion inhibitor project, dose response (AID 652040); type: functional, cell-based;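 note: potency for signal decrease marking cytotoxic or nonspecific inhibition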
[8] = inhibitors of clade B AD8 Env fusion, dose response, cell-based, cherry-pick (AID 652062); type: functional;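 note: luciferase signal from cell-cell fusion driven by HIV-1 clade B AD8 Env; potency is for inhibitors of fusion seen as a drop in luminescence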
[9] = target: COUP transcription factor 2 (Homo sapiens, UniProt P24468); assay: Luminescence-based cell-based high throughput dose response assay to identify inhibitors of COUP-TFII (NR2F2).; type: functional;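 note: HEK293 cells transiently cotransfected with COUP-TFII expression vector and reporter; luciferase reporter luminescence driven by COUP-TFII from the pX2-168 reporter plasmid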
Chain of COUP transcription factor 2 (P24468 whole entry): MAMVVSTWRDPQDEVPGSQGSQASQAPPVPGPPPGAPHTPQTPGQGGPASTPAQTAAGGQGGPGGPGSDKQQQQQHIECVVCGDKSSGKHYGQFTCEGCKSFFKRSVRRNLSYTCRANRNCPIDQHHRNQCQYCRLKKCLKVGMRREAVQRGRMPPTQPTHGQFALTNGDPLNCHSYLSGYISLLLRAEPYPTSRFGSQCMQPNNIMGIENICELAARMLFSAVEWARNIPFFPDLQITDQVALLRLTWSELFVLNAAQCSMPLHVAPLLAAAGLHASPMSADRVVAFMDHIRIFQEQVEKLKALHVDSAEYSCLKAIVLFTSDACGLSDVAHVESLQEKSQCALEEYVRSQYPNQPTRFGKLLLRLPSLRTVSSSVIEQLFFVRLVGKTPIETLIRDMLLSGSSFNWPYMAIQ

[10] = target: Galanin receptor type 3 (Homo sapiens, UniProt O60755); assay: Fluorescence-based cell-based primary high throughput dose response assay to identify antagonists of the Galanin Receptor 3 (GalR3).; type: functional
Chain of Galanin receptor type 3 (O60755 whole entry): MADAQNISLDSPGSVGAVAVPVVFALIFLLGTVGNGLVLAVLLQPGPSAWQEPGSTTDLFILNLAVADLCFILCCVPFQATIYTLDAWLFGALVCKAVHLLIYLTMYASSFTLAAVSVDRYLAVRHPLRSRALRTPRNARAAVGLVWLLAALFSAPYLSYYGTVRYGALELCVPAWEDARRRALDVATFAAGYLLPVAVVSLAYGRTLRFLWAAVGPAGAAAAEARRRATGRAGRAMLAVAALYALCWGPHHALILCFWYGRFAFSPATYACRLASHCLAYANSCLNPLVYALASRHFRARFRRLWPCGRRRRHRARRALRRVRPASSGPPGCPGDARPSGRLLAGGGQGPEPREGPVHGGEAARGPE

[11] = cells; type: functional, cell-based; conditions: HEK-CNG
[12] = target: Paired box protein Pax-8 (Homo sapiens, UniProt Q06710); assay: inhibitors of PAX8-driven TPO luciferase reporter, dose response, RMG-I cells, cherry-pick (AID 687027); type: functional, cell-based;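 note: luciferase reporter driven by Pax8 target thyroperoxidase promoter measured by SteadyGlo luminescence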
Chain of Paired box protein Pax-8 (Q06710 whole entry): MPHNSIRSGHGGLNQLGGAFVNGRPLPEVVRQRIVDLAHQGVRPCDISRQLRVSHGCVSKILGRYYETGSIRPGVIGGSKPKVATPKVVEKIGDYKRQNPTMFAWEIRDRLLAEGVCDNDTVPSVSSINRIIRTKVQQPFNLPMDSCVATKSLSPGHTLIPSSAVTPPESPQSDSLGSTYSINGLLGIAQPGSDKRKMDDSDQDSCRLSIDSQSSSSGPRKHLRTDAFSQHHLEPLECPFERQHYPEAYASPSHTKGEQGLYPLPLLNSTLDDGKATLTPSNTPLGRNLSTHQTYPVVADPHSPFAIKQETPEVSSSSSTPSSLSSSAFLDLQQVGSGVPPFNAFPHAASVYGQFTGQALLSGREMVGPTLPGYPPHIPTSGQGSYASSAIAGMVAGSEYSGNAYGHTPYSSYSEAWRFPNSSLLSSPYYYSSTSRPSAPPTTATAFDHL

[13] = PAX2 cell-based inhibition, dose response, selectivity assay for PAX8 inhibitor project, plate reader, dry powder samples (AID 743048); type: functional;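 note: HEK293 cells carrying a WT1 promoter luciferase reporter driven by expressed Pax2; potency is for inhibition of Pax2 driven reporter signal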
[14] = cytotoxicity in COV362 ovarian cancer cells, dose response, cytotoxicity control for PAX8 inhibitor project, cell-based, plate reader, dry powder, SA12 (AID 743144); type: functional
[15] = PAX5 activity inhibitors, dose response, selectivity assay for PAX8 inhibitor project, cell-based, plate reader, dry powder samples (AID 743047); type: functional;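 note: HEK293 cells carrying a Pax5 driven CD19 promoter luciferase reporter; potency of inhibitors that lower reporter luminescence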
[16] = cytotoxicity in COV434 cells, dose response, cytotoxicity control for PAX8 inhibitor project, cell-based, plate reader, dry powder, SA7 (AID 743145); type: functional
[17] = cytotoxicity dependent on PAX8, dose response, cell-based, plate reader, dry powder (AID 743049); type: functional
[18] = T. cruzi growth inhibition in host cells, dose response, cell-based, plate reader, dry powder, set 2 (AID 652275); type: functional
[19] = inhibitors of HIV Env-driven cell fusion, dose response, cherry-pick (AID 652057); type: functional, cell-based
[20] = target: Cytochrome P450 2C9 (Homo sapiens, UniProt P11712)
Chain of Cytochrome P450 2C9 (P11712 whole entry): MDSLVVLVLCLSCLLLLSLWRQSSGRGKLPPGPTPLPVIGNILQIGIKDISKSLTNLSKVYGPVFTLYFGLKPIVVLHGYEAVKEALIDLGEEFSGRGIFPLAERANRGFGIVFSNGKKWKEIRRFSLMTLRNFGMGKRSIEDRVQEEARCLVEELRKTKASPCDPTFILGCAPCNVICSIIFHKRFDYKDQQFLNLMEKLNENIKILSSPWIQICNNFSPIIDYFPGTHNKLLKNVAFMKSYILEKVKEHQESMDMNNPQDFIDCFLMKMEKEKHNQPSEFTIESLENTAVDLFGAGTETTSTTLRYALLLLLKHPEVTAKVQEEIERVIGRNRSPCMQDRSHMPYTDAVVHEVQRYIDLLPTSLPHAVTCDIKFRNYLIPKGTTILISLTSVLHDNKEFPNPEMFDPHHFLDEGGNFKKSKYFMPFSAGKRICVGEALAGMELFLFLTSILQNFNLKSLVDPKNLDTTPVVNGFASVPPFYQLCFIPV

[21] = target: FAD-linked sulfhydryl oxidase ALR (Homo sapiens, UniProt P55789); assay: inhibitors of human ALR sulfhydryl oxidase, dose response, biochemical, H2O2 detection, luminescence, cherry-pick (AID 493248)
Chain of FAD-linked sulfhydryl oxidase ALR (P55789 whole entry): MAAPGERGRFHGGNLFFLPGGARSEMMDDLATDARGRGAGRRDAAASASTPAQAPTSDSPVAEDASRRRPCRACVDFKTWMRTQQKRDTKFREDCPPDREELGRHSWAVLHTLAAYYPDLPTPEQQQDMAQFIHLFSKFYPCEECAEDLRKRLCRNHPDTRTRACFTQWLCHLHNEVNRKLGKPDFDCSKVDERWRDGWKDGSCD

[22] = target: Albumin (Bos taurus, UniProt P02769); assay: Counterscreen for inhibitors of T-cell receptor (TCR)-CD3 interaction: Fluorescence-based biochemical high throughput dose response assay to identify inhibitors of T-cell receptor (TCR)-CD3 interaction using a TAMRA-labeled BSA probe.; type: functional
Chain of Albumin (P02769 whole entry): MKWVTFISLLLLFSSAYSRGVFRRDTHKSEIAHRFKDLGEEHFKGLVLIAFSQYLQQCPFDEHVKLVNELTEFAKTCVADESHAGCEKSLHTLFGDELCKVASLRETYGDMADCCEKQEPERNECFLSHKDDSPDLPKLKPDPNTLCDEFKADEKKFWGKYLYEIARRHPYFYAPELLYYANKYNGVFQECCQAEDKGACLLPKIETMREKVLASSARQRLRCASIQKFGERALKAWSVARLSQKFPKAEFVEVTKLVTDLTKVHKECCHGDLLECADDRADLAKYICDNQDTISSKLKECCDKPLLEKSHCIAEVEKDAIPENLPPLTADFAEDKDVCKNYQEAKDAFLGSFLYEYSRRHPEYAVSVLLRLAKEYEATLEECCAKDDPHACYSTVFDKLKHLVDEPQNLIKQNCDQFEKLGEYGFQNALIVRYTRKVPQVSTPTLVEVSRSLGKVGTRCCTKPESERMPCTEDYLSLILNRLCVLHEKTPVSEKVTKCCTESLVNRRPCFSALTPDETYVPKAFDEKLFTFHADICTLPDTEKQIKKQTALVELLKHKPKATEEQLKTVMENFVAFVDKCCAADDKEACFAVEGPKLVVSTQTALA

SMILES: Cc1c(CNCCc2ccccc2)c(C(=O)O)c(C)n1-c1ccccc1
EC50 [1]: > 260 µM (inactive) | IC50 [2]: > 29.9 µM (inactive) | EC50 [3]: 1.78 µM (active) | IC50 [4]: 8.17 µM (active) | EC50 [5]: > 29.9 µM (inactive)

SMILES: N#CCSc1nnc(-c2sc3ccccc3c2Cl)o1
AC50 [6]: 46.4 µM (active) | AC50 [7]: > 70 µM (inactive) | AC50 [8]: 6.32 µM (active) | IC50 [9]: 12 µM (inactive)

SMILES: CC(=O)OCC[N+](C)(C)C.[O-][Cl+3]([O-])([O-])[O-]
IC50 [10]: 0.618 µM (active) | EC50 [11]: > 29.9 µM (inactive)

SMILES: C[C@H](CO)N1C[C@H](C)[C@@H](CN(C)Cc2ccc(-c3ccccc3)cc2)Oc2ccc(NS(=O)(=O)c3ccccc3)cc2CC1=O
AC50 [12]: 17.4 µM (active) | AC50 [13]: 8 µM (active) | AC50 [14]: 26.3 µM (active) | AC50 [15]: 14.8 µM (active) | AC50 [16]: 37.2 µM (active) | AC50 [17]: 30.4 µM (active)

SMILES: CN(C)C(=O)c1cccc(-c2ccc([C@H]3[C@@H](CO)N4CCCCN(C(=O)C5CCCC5)C[C@@H]34)cc2)c1
AC50 [18]: 0.691 µM (active)

SMILES: CC(C)N1C[C@@H](CN(C)Cc2ccc(Cl)cc2)Oc2c(NC(=O)c3ccccc3)cccc2C1=O
AC50 [18]: 1.49 µM (active)

SMILES: Cc1cccc(/C=N\Nc2cnnc(O)c2Cl)c1
AC50 [19]: 1.06 µM (active) | IC50 [2]: > 29.9 µM (inactive) | EC50 [3]: 1.28 µM (active) | IC50 [4]: 7.33 µM (active) | EC50 [5]: > 29.9 µM (inactive) | AC50 [7]: 0.76 µM (active) | AC50 [20]: 28.2 µM (inconclusive)

AC50 [21]: 4.94 µM (active) | IC50 [22]: > 94.3 µM (inactive)
SMILES: COC(=O)c1cc(O)c(O)c(O)c1 [GALLIC ACID METHYL ESTER]
